In this test the target is récepteurs des benzodiazépines. As to the kind of experiment: Benzodiazepine receptor binding, [³H] flunitrazépam displacement (modified Squires and Braestrup method). Particulars: concentration inhibiting by 50% the specific binding of 0,6 nanomoles of [³H] flunitrazépam; rat forebrain membrane preparations; read-out: Liaison aux récepteurs CI50. The arrangement: species or system rats. The text has this: L'affinité des composés pour les récepteurs des benzodiazépines a été évaluée en utilisant un radioligang [³H] flunitrazépam et la méthode de Squires et Braestrup (Nature, 1977, 266, 732) modifiée.
Les valeurs indiquées dans le tableau II ci-après sont les concentrations nanomolaires du produit testé qui inhibent dans une proportion de 50% la liaison spécifique de 0,6 nanomoles de [³H] flunitrazépam dans des préparations de membranes de cerveaux antérieurs de rats [(CI₅₀)en nanomoles].

This is an account of results in patent EP0293294A2, “Imidazo[1,2-a]pyrimidines and their salts, process and intermediates for their preparation, their use as medicaments and compositions containing them” (ROUSSEL-UCLAF, priority 1987, dated 1988).

Turning to `CCOC(=O)[C@@H]1C[C@H]1C(=O)c1cn2c(C)c(CC)c(OC)nc2n1` (relative stereo) [Exemple 1, trans 2-(6-éthyl 7-méthoxy 5-méthylimidazo [1,2-a]pyrimidin-2-oyl) cyclopropane carboxylate d'éthyle], the IC50 was 560 nM. With `COc1nc2nc(C(=O)[C@@H]3C[C@H]3Cl)cn2c2c1CCCC2` (relative stereo) [Exemple 6, trans (6,7,8,9-tétrahydro 5-méthoxyimidazo [1,2 a]quinazolin--yl) 2-chlorocyclopropyl méthanone] the figure was 180 nM.

Take `CCc1c(OC)nc2nc(C(=O)[C@@H]3C[C@H]3C)cn2c1C` (relative stereo) [Exemple 5, trans (6-éthyl 7-méthoxy 5-méthylimidazo [1,2-a]pyrimidin-2-yl) 2-méthyl cyclopropyl méthanone]: the IC50 was 1780 nM. With `COc1nc2nc(C(=O)[C@@H]3C[C@H]3C#N)cn2c2c1CCCC2` (relative stereo) [Exemple 11, trans 2-(6,7,8,9-tétrahydro 5-méthoxyimidazo [1,2-a]quinazolin-2-oyl) cyclopropane carbonitrile] the figure was 1000 nM; with `COc1nc2nc(C(=O)C3(C)CC3)cn2c2c1CCCC2` [Exemple 4, (6,7,8,9-tétrahydro 5-méthoxyimidazo [1,2-a]quinazolin-2-yl) 1-méthyl cyclopropyl méthanone], 6300 nM.
